Experimental data taken from patent publication US12133855B2, “Lipid-like nanocomplexes and uses thereof” (Trustees of Tufts College, priority 2018, dated 2024).

Assays:
[1] = Thiol-triggered Nile red release; format: physicochemical
Method: Lipidoids were fabricated into nanoparticles for all delivery applications. Briefly, lipidoids were mixed with sodium acetate buffer (25 mM, pH 5.2), sonicated for 30 min in an ultrasonic bath, followed by another 30 min of vigorous vortexing. The as-prepared blank LNPs were stored at 4° C. For Cy5-RNA/LNP, mRNA/LNP and protein/LNP complexation, blank lipidoid nanoparticles were mixed with RNA molecules or (−30)GFP-Cre protein in PBS buffer (pH 7.4) following our previously reported procedures and incubated at room temperature for another 30 min before use. Typical procedures for Nile red encapsulation are as follows: 5 μL of Nile red stock solution in acetone was added into an empty vial, which was then placed in a vacuum oven to completely remove the organic solvent. Then, a predetermined amount of blank LNP stock solution (1.0 mg/mL) was added into the vial. The mixture was sonicated for 40 min in an ultrasonic bath and stirred overnight at room temperature. The final concentration of Nile red was adjusted to 6.6×10-7 mol L-1 and 6×10-7 mol L-1 for thiol triggered release study and cell incubation, respectively, by diluting with PBS as necessary. Typical procedures for CPT and DiO/DiI FRET pair encapsulation are as follows: 100 μL of DiO/DiI stock solution in MeOH was charged into an empty vial and placed in a vacuum oven to remove the organic solvent. Lipidoids (2.0 mg) in 200 μL of methanol were then added into the vial and stirred to produce a homogeneous solution. Then, 600 μL of DI water was added dropwise in 10 min with continuous stirring. The resulting mixture was dialyzed against DI water for 24 h (Thermo Scientific Slide-A-Lyzer Dialysis Cassette, MWCO=3500 Da), and fresh water was replaced every 4 h. Typical procedures for encapsulation of calcein and doxonorubicin hydrochloride are as follows: precalculated amounts of calcein or Dox stock solutions in DI water was diluted into 800 μL with sodium acetate buffer, and used as the selective solvents to trigger the self-assembly process of lipidoids in methanol (5 mg/mL), respectively. The unloaded calcein or Dox was removed by dialysis against DI water (Thermo Scientific Slide-A-Lyzer Dialysis Cassette, MWCO=3500 Da).
The reduction triggered release behavior of encapsulated cargoes was then studied by using nile red loaded 75-OCholB LNPs (NR/75-OCholB), taking advantage of the microenvironmental polarity sensitive photophysical property of nile red. […] In the meantime, 20 μM Cysteine treated NR/75-OCholB released 4.2% of nile red in 2 h and 6.9% in 6 h, which could be ascribed to the previously discussed minimal structural and morphological changes of the LNPs under the stimulus of low concentration of thiols (FIGS. 11A and 11C). […] Furthermore, the binding affinity of OCholB LNPs with negatively charged macromolecular cargo, Cy5-RNA, was examined. […] Additionally, similar to the responsiveness study, it is reasonable that the cargo release profiles could depend on both of the species and concentrations of the thiols-containing regents. Above all, OCholB LNPs loaded with cargoes are relatively stable in the presence of low concentration of thiols and the triggered release behaviors of cargo molecules with different physicochemical properties (hydrophobic/hydrophilic, low/high molecular weight, etc.) could be expected.

[2] = Thiol-triggered calcein release (fluorescence dequenching); format: physicochemical; conditions: DTT 1 mM, 5 mM and 10 mM, 12 h incubation
Method: Lipidoids were fabricated into nanoparticles for all delivery applications. Briefly, lipidoids were mixed with sodium acetate buffer (25 mM, pH 5.2), sonicated for 30 min in an ultrasonic bath, followed by another 30 min of vigorous vortexing. The as-prepared blank LNPs were stored at 4° C. For Cy5-RNA/LNP, mRNA/LNP and protein/LNP complexation, blank lipidoid nanoparticles were mixed with RNA molecules or (−30)GFP-Cre protein in PBS buffer (pH 7.4) following our previously reported procedures and incubated at room temperature for another 30 min before use. Typical procedures for Nile red encapsulation are as follows: 5 μL of Nile red stock solution in acetone was added into an empty vial, which was then placed in a vacuum oven to completely remove the organic solvent. Then, a predetermined amount of blank LNP stock solution (1.0 mg/mL) was added into the vial. The mixture was sonicated for 40 min in an ultrasonic bath and stirred overnight at room temperature. The final concentration of Nile red was adjusted to 6.6×10-7 mol L-1 and 6×10-7 mol L-1 for thiol triggered release study and cell incubation, respectively, by diluting with PBS as necessary. Typical procedures for CPT and DiO/DiI FRET pair encapsulation are as follows: 100 μL of DiO/DiI stock solution in MeOH was charged into an empty vial and placed in a vacuum oven to remove the organic solvent. […]

## CCN(CC)CCN(CCC(=O)OCCSSCCNC(=O)OC1CCC2(C)C(=CCC3C2CCC2(C)C(C(C)CCCC(C)C)CCC32)C1)CCC(=O)OCCSSCCNC(=O)OC1CCC2(C)C(=CCC3C2CCC2(C)C(C(C)CCCC(C)C)CCC32)C1 (stereo not drawn) [Lipidoid 75-OCholB]
[1]; 20 μM Cysteine, 2 h
  encapsulated nile red released: 4.2%
[1]; 20 μM Cysteine, 6 h
  encapsulated nile red released: 6.9%
[1]; 1 mM DTT, 2 h
  encapsulated nile red released: 33.5%
[1]; 1 mM DTT, 6 h
  encapsulated nile red released: 44.0%
[1]; 5 mM DTT, 2 h
  encapsulated nile red released: 61.7%
[1]; 5 mM DTT, 6 h
  encapsulated nile red released: 84.2%
[1]; 10 mM DTT, 2 h
  encapsulated nile red released: 67.4%
[1]; 10 mM DTT, 6 h
  encapsulated nile red released: 86.4%
[2]
  increase of calcein fluorescence intensity vs untreated and cysteine treated LNPs: 4.7-6.4 folds
